Data taken from patent US20200131669A1, “CYCLIC PEPTIDE COMPOUND HAVING HIGH MEMBRANE PERMEABILITY, AND LIBRARY CONTAINING SAME” (Chugai Seiyaku Kabushiki Kaisha, priority 2017, published 2020).
Starred links: 1 amine or outer side, 2 acyl side, 3 side chain; linkers in the order of their positions; H or OH if unused. Positions of bridges follow the written chain, without caps; N, C: chain ends. Non-standard residues stand in square brackets, D forms with d. Residues, ends and D or L forms follow the SMILES beside them. *: point of attachment. NMeAbu(3,3-F2-piperidino) = CN[C@@H](CCN1CCCC(F)(F)C1)C(=O)O; NMePhe(3-Cl) = CN[C@@H](Cc1cccc(Cl)c1)C(=O)O; hPhe(3-Cl) = N[C@@H](CCc1cccc(Cl)c1)C(=O)O; hPhe(4-Cl) = N[C@@H](CCc1ccc(Cl)cc1)C(=O)O; X8 = O=C(CN(CCN1CCC(F)(F)CC1)[*:1])[*:2]; hhPhe = N[C@@H](CCCc1ccccc1)C(=O)O; X3 = O=C([C@H](CCCCO)N[*:1])[*:2]; NMeF = CN[C@@H](Cc1ccccc1)C(=O)O; NMeGABA = CN(CCCC(=O)[*:2])[*:1]; NMeI = CC[C@H](C)[C@H](NC)C(=O)O; hPhe = N[C@@H](CCc1ccccc1)C(=O)O; CH2CONHtBu = CC(C)(C)NC(=O)C*; NMeL = CN[C@@H](CC(C)C)C(=O)O; NMeV = CN[C@H](C(=O)O)C(C)C; NMeAbu = CC[C@H](NC)C(=O)O; NPentylGly = CCCCCNCC(=O)O; hSer = N[C@@H](CCO)C(=O)O; NMeA = CN[C@@H](C)C(=O)O; Piperidide = C1CCN(*)CC1; CH2CMe2OH = CC(C)(O)C*; NBuGly = CCCCNCC(=O)O; NPrGly = CCCNCC(=O)O; X11 = FC(F)C(F)(F)C*; X2 = Fc1cncc(C*)c1; Sar = CNCC(=O)O; tBu = CC(C)(C)*

Test system: Caco-2 cells
Test: Caco-2 membrane permeability, improved method as used in the following Examples (96-well, 20 to 24 h preincubation)
Assay type: in vitro ADME
Method in brief: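 Papp (cm/sec) was derived from LC/MS of basal samples collected 180 min after apical dosing in FaSSIF/HBSS pH 6.0 with 1% DMSO, against a basal HBSS pH 7.4 receiver containing 4% BSA. Three-week Caco-2 cultures were first preincubated with compound in DMEM+FaSSIF at 37 °C for 20–24 h.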

[1] = Papp, Caco-2 membrane permeability, improved method

With `CC(C)C[C@H]1C(=O)N[C@@H](COC(C)(C)C)C(=O)N(C)[C@@H](Cc2ccccc2)C(=O)N(C)[C@@H](C(C)C)C(=O)N[C@H](C(=O)N2CCCCC2)CC(=O)N[C@H](C)C(=O)N(C)[C@@H](Cc2ccccc2)C(=O)NC(COc2cccc(Cl)c2)C(=O)N(C)[C@@H](C(C)C)C(=O)N[C@@H]([C@@H](C)O)C(=O)N(C)CC(=O)N1C` (stereo partly drawn) [pd185] the “Caco-2” value (human, Caco-2, 180 min) was 2.2e-06 cm/s.
`CC[C@H](C)[C@H]1C(=O)N[C@@H]([C@@H](C)O)C(=O)N(C)CC(=O)N(C)[C@@H](C)C(=O)N[C@H](C(=O)N2CCCCC2)CC(=O)N(C)[C@@H](C)C(=O)N[C@@H](C(C)C)C(=O)N(C)[C@@H](CC(C)C)C(=O)N(C)[C@@H](Cc2ccccc2)C(=O)NC(COc2cccc(Cl)c2)C(=O)N(C)[C@@H](Cc2ccccc2)C(=O)N1C` (stereo partly drawn) [pd186] was tested, and the “Caco-2” value (human, Caco-2, 180 min) was 1.8e-06 cm/s.
For `CC[C@H](C)[C@H]1C(=O)N[C@@H]([C@@H](C)O)C(=O)N(C)CC(=O)N(C)[C@@H](CC(C)C)C(=O)N[C@H](C(=O)N2CCCCC2)CC(=O)N(C)[C@@H](C)C(=O)NC(COc2cccc(Cl)c2)C(=O)N(C)[C@@H](CC(C)C)C(=O)N(C)[C@@H](Cc2ccccc2)C(=O)N[C@@H](C)C(=O)N(C)[C@@H](Cc2ccccc2)C(=O)N1C` (stereo partly drawn) [pd188], the “Caco-2” value (human, Caco-2, 180 min) was 1.3e-06 cm/s.
`CC(C)C[C@H]1C(=O)N[C@H](C(=O)N2CCCCC2)CC(=O)N[C@H](C)C(=O)N(C)[C@@H](CC(C)C)C(=O)N[C@@H](COC(C)(C)C)C(=O)N(C)[C@@H](C)C(=O)N(C)[C@@H](CC(C)C)C(=O)N(C)[C@@H](C)C(=O)N[C@@H]([C@@H](C)O)C(=O)N(C)[C@@H](Cc2ccccc2)C(=O)N[C@@H](CCc2ccccc2)C(=O)N1C` [pd309] ([dA][NMeL]S(tBu)[NMeA][NMeL][NMeA]T[NMeF][hPhe][NMeL]D-Piperidide; lactam N-11) showed a Caco-2 (human, Caco-2, 180 min) of 1.1e-06 cm/s.
Compound `CC[C@H](C)[C@H]1C(=O)N[C@@H]([C@@H](C)O)C(=O)N(C)CC(=O)N(C)[C@@H](CC(C)C)C(=O)N[C@H](C(=O)N2CCCCC2)CC(=O)N(C)[C@@H](C(C)C)C(=O)N[C@@H](COCc2cncc(F)c2)C(=O)N(C)[C@@H](CC(C)C)C(=O)N(C)[C@@H](Cc2ccccc2)C(=O)N[C@@H](CC(C)C)C(=O)N(C)[C@@H](Cc2ccccc2)C(=O)N1C` [pd347] ([NMeV]S(X2)[NMeL][NMeF]L[NMeF][NMeI]T[Sar][NMeL]D-Piperidide; lactam N-11) has a Caco-2 (human, Caco-2, 180 min) of 1.1e-06 cm/s.
`CC[C@H](C)[C@H]1C(=O)N[C@@H]([C@@H](C)O)C(=O)N(C)CC(=O)N(C)[C@@H](CC(C)C)C(=O)N[C@H](C(=O)N2CCCCC2)CC(=O)N(C)[C@@H](C)C(=O)N[C@@H](CC(C)C)C(=O)N(C)[C@@H](CC(C)C)C(=O)N(C)[C@@H](Cc2ccccc2)C(=O)N[C@@H](COCC(F)(F)C(F)F)C(=O)N(C)[C@@H](Cc2ccccc2)C(=O)N1C` [pd348] ([NMeA]L[NMeL][NMeF]S(X11)[NMeF][NMeI]T[Sar][NMeL]D-Piperidide; lactam N-11) was tested, and the Caco-2 (human, Caco-2, 180 min) was 1.1e-06 cm/s.
In the case of `CC[C@H](C)[C@@H]1NC(=O)[C@H](Cc2ccccc2)N(C)C(=O)CN(C)C(=O)C[C@@H](C(=O)N2CCCCC2)NC(=O)[C@H](C(C)C)N(C)C(=O)[C@H](CCc2cccc(Cl)c2)NC(=O)[C@H](CC(C)C)N(C)C(=O)[C@H](CC(C)C)N(C)C(=O)CN(C)C(=O)[C@H]([C@@H](C)O)NC(=O)[C@H](CC(C)C)N(C)C1=O` [pd358] ([Sar][NMeF]I[NMeL]T[Sar][NMeL][NMeL][hPhe(3-Cl)][NMeV]D-Piperidide; lactam N-11), the Caco-2 (human, Caco-2, 180 min) is reported as 1.1e-06 cm/s.
With `CC(C)C[C@H]1C(=O)N[C@@H](COC(C)(C)C)C(=O)N(C)[C@@H](Cc2ccccc2)C(=O)N(C)[C@@H](C(C)C)C(=O)N[C@H](C(=O)N2CCCCC2)CC(=O)N[C@H](C(C)C)C(=O)N(C)[C@@H](C)C(=O)N[C@@H](CCc2ccc(Cl)cc2)C(=O)N(C)[C@@H](CC(C)C)C(=O)N[C@@H]([C@@H](C)O)C(=O)N(C)CC(=O)N1C` [pd359] ([dV][NMeA][hPhe(4-Cl)][NMeL]T[Sar][NMeL]S(tBu)[NMeF][NMeV]D-Piperidide; lactam N-11) the Caco-2 (human, Caco-2, 180 min) was 1.1e-06 cm/s.
`CC(C)C[C@H]1C(=O)N[C@H](C(=O)N2CCCCC2)CC(=O)N(C)[C@@H](C)C(=O)N[C@@H](CCc2ccc(Cl)cc2)C(=O)N(C)[C@@H](CC(C)C)C(=O)N(C)[C@@H](CC(C)C)C(=O)N[C@@H](C)C(=O)N(C)[C@@H](Cc2ccccc2)C(=O)N(C)[C@@H](C(C)C)C(=O)N[C@@H]([C@@H](C)O)C(=O)N(C)CC(=O)N1C` [pd361] ([NMeA][hPhe(4-Cl)][NMeL][NMeL]A[NMeF][NMeV]T[Sar][NMeL]D-Piperidide; lactam N-11) was tested, and the Caco-2 (human, Caco-2, 180 min) was 1.1e-06 cm/s.
For `CC(C)C[C@H]1C(=O)N[C@@H](COC(C)(C)C)C(=O)N(C)[C@@H](Cc2ccccc2)C(=O)N(C)[C@@H](C)C(=O)N[C@H](C(=O)N2CCCCC2)CC(=O)N[C@H](C(C)C)C(=O)N(C)[C@@H](Cc2ccccc2)C(=O)N[C@@H](CCCc2ccccc2)C(=O)N(C)[C@@H](CC(C)C)C(=O)N[C@@H]([C@@H](C)O)C(=O)N(C)CC(=O)N1C` [pd363] ([dV][NMeF][hhPhe][NMeL]T[Sar][NMeL]S(tBu)[NMeF][NMeA]D-Piperidide; lactam N-11), the Caco-2 (human, Caco-2, 180 min) was 1.1e-06 cm/s.
Work on `CC(C)C[C@@H]1NC(=O)[C@H](CCN2CCCC(F)(F)C2)N(C)C(=O)[C@@H](C(C)C)NC(=O)C[C@@H](C(=O)N2CCCCC2)NC(=O)[C@H](C)N(C)C(=O)[C@H](Cc2cccc(Cl)c2)N(C)C(=O)[C@H](CC(C)C)NC(=O)[C@H](CC(C)C)N(C)C(=O)CN(C)C(=O)[C@H]([C@@H](C)O)NC(=O)[C@H](Cc2ccccc2)N(C)C1=O` [pd389] ([dV][NMeAbu(3,3-F2-piperidino)]L[NMeF]T[Sar][NMeL]L[NMePhe(3-Cl)][NMeA]D-Piperidide; lactam N-11) yielded a Caco-2 (human, Caco-2, 180 min) of 1.1e-06 cm/s.
In the case of `CCCCCN1CC(=O)N[C@@H](COC(C)(C)C)C(=O)N(C)[C@@H](Cc2ccccc2)C(=O)N(C)[C@@H](CC(C)C)C(=O)N[C@H](C(=O)N2CCCCC2)CC(=O)N[C@H](CC(C)C)C(=O)N(C)[C@@H](Cc2ccccc2)C(=O)N[C@@H]([C@@H](C)CC)C(=O)N(C)[C@@H](CC)C(=O)N[C@@H]([C@@H](C)O)C(=O)N(C)CC1=O` [pd406] ([dL][NMeF]I[NMeAbu]T[Sar][NPentylGly]S(tBu)[NMeF][NMeL]D-Piperidide; lactam N-11), the Caco-2 (human, Caco-2, 180 min) is reported as 1.1e-06 cm/s.
`CCCN1CC(=O)N(C)[C@@H](Cc2ccccc2)C(=O)N[C@@H]([C@@H](C)CC)C(=O)N(C)[C@@H](CC(C)C)C(=O)N[C@@H]([C@@H](C)O)C(=O)N(CCC)CC(=O)N(C)[C@@H](Cc2ccccc2)C(=O)N(C)[C@@H](CC(C)C)C(=O)N[C@@H](COCC(C)(C)O)C(=O)N(C)[C@@H](C(C)C)C(=O)N[C@H](C(=O)N2CCCCC2)CC1=O` [pd431] ([NPrGly][NMeF]I[NMeL]T[NPrGly][NMeF][NMeL]S(CH2CMe2OH)[NMeV]D-Piperidide; lactam N-11) was tested, and the Caco-2 (human, Caco-2, 180 min) was 1.1e-06 cm/s.
`CCCN1CC(=O)N(C)[C@@H](CC(C)C)C(=O)N[C@@H](CC(C)C)C(=O)N(C)[C@@H](Cc2ccccc2)C(=O)N(C)[C@@H](C)C(=O)N[C@H](C(=O)N2CCCCC2)CC(=O)N[C@H](CC(C)C)C(=O)N(C)[C@@H](Cc2ccccc2)C(=O)N[C@@H](COCC(=O)NC(C)(C)C)C(=O)N(C)[C@@H](CC(C)C)C(=O)N[C@@H]([C@@H](C)O)C1=O` [pd442] ([dL][NMeF]S(CH2CONHtBu)[NMeL]T[NPrGly][NMeL]L[NMeF][NMeA]D-Piperidide; lactam N-11) was tested, and the Caco-2 (human, Caco-2, 180 min) was 1.1e-06 cm/s.
Compound `CCOCC[C@@H]1NC(=O)[C@H](CC(C)C)N(C)C(=O)CN(C)C(=O)[C@H]([C@@H](C)O)NC(=O)[C@H](CC(C)C)N(C)C(=O)[C@H](CC(C)C)NC(=O)[C@H](Cc2ccccc2)N(C)C(=O)[C@@H](CC(C)C)NC(=O)C[C@@H](C(=O)N2CCCCC2)NC(=O)[C@H](CC(C)C)N(C)C(=O)[C@H](Cc2ccccc2)N(C)C1=O` [pd444] ([dL][NMeF]L[NMeL]T[Sar][NMeL][hSer](Et)[NMeF][NMeL]D-Piperidide; lactam N-11) has a Caco-2 [1] of 1.1e-06 cm/s.
In the case of `CCCCN1CC(=O)N(C)[C@@H](Cc2ccccc2)C(=O)N(C)[C@@H](CC(C)C)C(=O)N[C@@H](CC(C)C)C(=O)N(C)[C@@H](CC(C)C)C(=O)N[C@H](C(=O)N2CCCCC2)CC(=O)N(C)CC(=O)N(C)[C@@H](Cc2ccccc2)C(=O)N[C@@H](CCOCC)C(=O)N(C)[C@@H](CC(C)C)C(=O)N[C@@H]([C@@H](C)O)C1=O` [pd445] ([Sar][NMeF][hSer](Et)[NMeL]T[NBuGly][NMeF][NMeL]L[NMeL]D-Piperidide; lactam N-11), the Caco-2 (human, Caco-2, 180 min) is reported as 1.1e-06 cm/s.
Work on `CC(C)C[C@H]1C(=O)N[C@@H](CCCCO)C(=O)N(C)[C@@H](CC(C)C)C(=O)N(C)[C@@H](CC(C)C)C(=O)N[C@H](C(=O)N2CCCCC2)CC(=O)N(C)CCCC(=O)N(C)[C@@H](C(C)C)C(=O)N[C@@H](C(C)C)C(=O)N(C)[C@@H](Cc2ccccc2)C(=O)N(C)[C@@H](Cc2ccccc2)C(=O)N[C@@H](COC(C)(C)C)C(=O)N1C` [pd447] ([NMeGABA][NMeV]V[NMeF][NMeF]S(tBu)[NMeL][X3][NMeL][NMeL]D-Piperidide; lactam N-11) yielded a Caco-2 [1] of 1.1e-06 cm/s.
`CC(C)C[C@H]1C(=O)N[C@H](C(=O)N2CCCCC2)CC(=O)N(C)CC(=O)N(C)[C@@H](Cc2ccccc2)C(=O)N[C@@H](C(C)C)C(=O)N(C)[C@@H](CC(C)C)C(=O)N[C@@H]([C@@H](C)O)C(=O)N(CCN2CCC(F)(F)CC2)CC(=O)N(C)[C@@H](Cc2ccccc2)C(=O)N(C)[C@@H](CC(C)C)C(=O)N[C@@H](COC(C)(C)C)C(=O)N1C` [pd455] ([Sar][NMeF]V[NMeL]T[X8][NMeF][NMeL]S(tBu)[NMeL]D-Piperidide; lactam N-11) was tested, and the Caco-2 (human, Caco-2, 180 min) was 1.1e-06 cm/s.
